Experimental data as given in article PMC7914897, “Cytotoxic Potential of a-Azepano- and 3-Amino-3,4-SeCo-Triterpenoids” (International Journal of Molecular Sciences, 2021).
Read-outs that look alike come from different tables or passages of the source.

Key:
NSC lung cancer subpanel = assay: NCI-60 screen, subpanel; settings: Homo sapiens
[1] = tested on: NCI-H322M (NSC lung cancer); assay: NCI-60 screen (SRB, 48 h); settings: Homo sapiens
Melanoma subpanel = assay: NCI-60 screen, subpanel; settings: Homo sapiens
[2] = tested on: NCI-H460 (NSC lung cancer); assay: NCI-60 screen (SRB, 48 h); settings: Homo sapiens
Breast cancer subpanel = assay: NCI-60 screen, subpanel; settings: Homo sapiens
COLO 205 (Colon cancer) = assay: NCI-60 screen (SRB, 48 h); settings: Homo sapiens
Renal Cancer subpanel = assay: NCI-60 screen, subpanel; settings: Homo sapiens
A498 (Renal cancer) = assay: NCI-60 screen (SRB, 48 h); settings: Homo sapiens
BT-549 (Breast cancer) = assay: NCI-60 screen (SRB, 48 h); format: cell-based; settings: Homo sapiens
SK-OV-3 (Ovarian cancer) = assay: NCI-60 screen (SRB, 48 h); settings: Homo sapiens
ACHN (Renal cancer) = assay: NCI-60 screen (SRB, 48 h); settings: Homo sapiens
SW-620 (Colon cancer) = assay: NCI-60 screen (SRB, 48 h); settings: Homo sapiens
UO-31 (Renal cancer) = assay: NCI-60 screen (SRB, 48 h); settings: Homo sapiens
UACC-62 (Melanoma) = assay: NCI-60 screen (SRB, 48 h); settings: Homo sapiens
OVCAR-3 (Ovarian cancer) = assay: cells; settings: Homo sapiens
[3] = tested on: panel of approximately 60 cancer cell lines; assay: NCI-60 screen (SRB, 48 h), full panel
SK-MEL-2 (Melanoma) = assay: NCI-60 screen (SRB, 48 h); settings: Homo sapiens
LOX IMVI (Melanoma) = assay: NCI-60 screen (SRB, 48 h); format: cell-based; settings: Homo sapiens
MCF7 (Breast cancer) = assay: NCI-60 screen (SRB, 48 h); settings: Homo sapiens
[4] = tested on: NCI-H226 (NSC lung cancer); assay: NCI-60 screen (SRB, 48 h); settings: Homo sapiens
SNB-75 (CNS cancer) = assay: NCI-60 screen (SRB, 48 h); settings: Homo sapiens
M14 (Melanoma) = assay: NCI-60 screen (SRB, 48 h); settings: Homo sapiens
RXF 393 (Renal cancer) = assay: NCI-60 screen (SRB, 48 h); settings: Homo sapiens
PC-3 (Prostate cancer) = assay: NCI-60 screen (SRB, 48 h); settings: Homo sapiens
HOP-62 (NSC lung cancer) = assay: NCI-60 screen (SRB, 48 h); settings: Homo sapiens
Ovarian Cancer subpanel = assay: NCI-60 screen, subpanel; settings: Homo sapiens
HCC-2998 (Colon cancer) = assay: NCI-60 screen (SRB, 48 h)
DU-145 (Prostate cancer) = assay: NCI-60 screen (SRB, 48 h); settings: Homo sapiens

C=C(C)[C@@H]1CC[C@]2(C)[C@H](CC=C3[C@@H]4[C@@H](C)[C@H](C)CC[C@]4(CO)CC[C@]32C)[C@@]1(C)CCCN [Compound 19]
IC (TGI) (NSC lung cancer subpanel; 48 h, read-out: TGI MG_MID): 5.16 µM | GI50 (NSC lung cancer subpanel; read-out: GI50 MG_MID): 1.84 µM | CC50 (NSC lung cancer subpanel; read-out: LC50 MG_MID): 27 µM | GI50 [1]: 1.74 µM | IC (TGI) ([1]; 48 h, read-out: TGI): 6.38 µM | CC50 ([1]; read-out: LC50): 18.6 µM | IC (TGI) (Melanoma subpanel; 48 h, read-out: TGI MG_MID): 3.3 µM | GI50 (Melanoma subpanel; read-out: GI50 MG_MID): 1.54 µM | CC50 (Melanoma subpanel; read-out: LC50 MG_MID): 7.68 µM | GI50 ([2]; NCI-H460): 0.91 µM | IC (TGI) ([2]; NCI-H460, 48 h, read-out: TGI): 1.71 µM | CC50 ([2]; NCI-H460, read-out: LC50): 3.19 µM | IC (TGI) (Breast cancer subpanel; 48 h, read-out: TGI MG_MID): 3.62 µM | GI50 (Breast cancer subpanel; read-out: GI50 MG_MID): 1.28 µM | CC50 (Breast cancer subpanel; read-out: LC50 MG_MID): 16.9 µM | GI50 (COLO 205 (Colon cancer); COLO 205): 0.9 µM | IC (TGI) (COLO 205 (Colon cancer); COLO 205, 48 h, read-out: TGI): 1.94 µM | CC50 (COLO 205 (Colon cancer); COLO 205, read-out: LC50): 4.17 µM | IC (TGI) (Renal Cancer subpanel; 48 h, read-out: TGI MG_MID): 4.63 µM | GI50 (Renal Cancer subpanel; read-out: GI50 MG_MID): 1.56 µM | CC50 (Renal Cancer subpanel; read-out: LC50 MG_MID): 13.3 µM | GI50 (A498 (Renal cancer); A498): 3.83 µM | IC (TGI) (A498 (Renal cancer); A498, 48 h, read-out: TGI): 11.2 µM | CC50 (A498 (Renal cancer); A498, read-out: LC50): 27.7 µM | GI50 (BT-549 (Breast cancer); BT-549): 2.56 µM | IC (TGI) (BT-549 (Breast cancer); BT-549, 48 h): 9.23 µM | CC50 (BT-549 (Breast cancer); BT-549, read-out: LC50 (the source's name)): 23.3 µM | GI50 (SK-OV-3 (Ovarian cancer); SK-OV-3): 4.42 µM | IC (TGI) (SK-OV-3 (Ovarian cancer); SK-OV-3, 48 h, read-out: TGI): 12 µM | CC50 (SK-OV-3 (Ovarian cancer); SK-OV-3, read-out: LC50): 30.5 µM | GI50 (ACHN (Renal cancer)): 1.42 µM | IC (TGI) (ACHN (Renal cancer); 48 h, read-out: TGI): 3.4 µM | CC50 (ACHN (Renal cancer); read-out: LC50): 17 µM | GI50 (SW-620 (Colon cancer); SW-620): 1.01 µM | IC (TGI) (SW-620 (Colon cancer); SW-620, 48 h, read-out: TGI): 2.11 µM | CC50 (SW-620 (Colon cancer); SW-620, read-out: LC50): 4.39 µM | GI50 (UO-31 (Renal cancer); UO-31): 0.82 µM | IC (TGI) (UO-31 (Renal cancer); UO-31, 48 h, read-out: TGI): 2.24 µM | CC50 (UO-31 (Renal cancer); UO-31, read-out: LC50): 9.64 µM | GI50 (UACC-62 (Melanoma); UACC-62): 5.82 µM | IC (TGI) (UACC-62 (Melanoma); UACC-62, 48 h, read-out: TGI): 12.6 µM | CC50 (UACC-62 (Melanoma); UACC-62, read-out: LC50): 27.3 µM | GI50 (OVCAR-3 (Ovarian cancer); OVCAR-3): 0.93 µM | IC (TGI) (OVCAR-3 (Ovarian cancer); OVCAR-3, 48 h, read-out: TGI): 1.79 µM | CC50 (OVCAR-3 (Ovarian cancer); OVCAR-3, read-out: LC50): 3.44 µM | Positive Cytostatic Effect (cell lines with percent growth 0 to 50 / total) ([3]; 1 dose 10 µM): 20/60 | Positive Cytotoxic Effect (cell lines with percent growth < 0 / total) ([3]; 1 dose 10 µM): 28/60 | number of cancer cell lines the compound was active against ([3]; 1 dose 10 µM): 45 cell lines | activity at 10 µM ([3]; Homo sapiens, 48 h, read-out: Mean Growth, %): -4.29% | activity at 10 µM ([3]; Homo sapiens, 48 h, read-out: Range of Growth, %): -99 to 84.5% | IC (TGI) ([3]; Homo sapiens, 48 h, read-out: TGI MG_MID60, average over all cell lines): 3.89 µM | GI50 ([3]; Homo sapiens, read-out: GI50 MG_MID60): 1.42 µM | GI50 ([3]; Homo sapiens, read-out: GI50 against all human tumor cell lines): < 10 µM | GI50 ([3]; Homo sapiens, read-out: GI50 against the most sensitive cell lines): 0.2 to 0.94 µM | CC50 ([3]; Homo sapiens, read-out: LC50 MG_MID60, average over all cell lines): 17 µM | GI50 (SK-MEL-2 (Melanoma); SK-MEL-2): 1.73 µM | IC (TGI) (SK-MEL-2 (Melanoma); SK-MEL-2, 48 h, read-out: TGI): 5.04 µM | CC50 (SK-MEL-2 (Melanoma); SK-MEL-2, read-out: LC50): 18.5 µM | IC (TGI) (LOX IMVI (Melanoma); 48 h): 1.57 µM | activity at 10 µM (LOX IMVI (Melanoma); 48 h, 1 dose 10 µM, read-out: Growth % of the Most Sensitive Cell Lines): -99% | GI50 (LOX IMVI (Melanoma); read-out: GI50): 0.86 µM | CC50 (LOX IMVI (Melanoma); read-out: LC50 (the source's name)): 2.86 µM | GI50 (MCF7 (Breast cancer); MCF7): 0.83 µM | IC (TGI) (MCF7 (Breast cancer); MCF7, 48 h, read-out: TGI): 1.73 µM | GI50 ([4]; NCI-H226): 6.72 µM | IC (TGI) ([4]; NCI-H226, 48 h, read-out: TGI): 18.3 µM | CC50 ([4]; NCI-H226, read-out: LC50): 49.9 µM | GI50 (SNB-75 (CNS cancer); SNB-75): 0.85 µM | IC (TGI) (SNB-75 (CNS cancer); SNB-75, 48 h, read-out: TGI): 3.62 µM | CC50 (SNB-75 (CNS cancer); SNB-75, read-out: LC50): 17.1 µM | GI50 (M14 (Melanoma); M14): 0.85 µM | IC (TGI) (M14 (Melanoma); M14, 48 h, read-out: TGI): 1.76 µM | CC50 (M14 (Melanoma); M14, read-out: LC50): 3.64 µM | GI50 (RXF 393 (Renal cancer); RXF 393): 0.83 µM | IC (TGI) (RXF 393 (Renal cancer); RXF 393, 48 h, read-out: TGI): 1.59 µM | CC50 (RXF 393 (Renal cancer); RXF 393, read-out: LC50): 3.07 µM | GI50 (PC-3 (Prostate cancer); PC-3): 1.65 µM | IC (TGI) (PC-3 (Prostate cancer); PC-3, 48 h, read-out: TGI): 7.48 µM | CC50 (PC-3 (Prostate cancer); PC-3, read-out: LC50): 26 µM | GI50 (HOP-62 (NSC lung cancer); HOP-62): 1.08 µM | IC (TGI) (HOP-62 (NSC lung cancer); HOP-62, 48 h, read-out: TGI): 2.36 µM | CC50 (HOP-62 (NSC lung cancer); HOP-62, read-out: LC50): > 50 µM | IC (TGI) (Ovarian Cancer subpanel; 48 h, read-out: TGI MG_MID): 4.2 µM | GI50 (Ovarian Cancer subpanel; read-out: GI50 MG_MID): 1.57 µM | CC50 (Ovarian Cancer subpanel; read-out: LC50 MG_MID): 19.7 µM | Growth % of the Most Sensitive Cell Lines (HCC-2998 (Colon cancer); HCC-2998, 1 dose 10 µM): −93.35% | GI50 (HCC-2998 (Colon cancer); Homo sapiens, HCC 2998): 0.87 µM | IC (TGI) (HCC-2998 (Colon cancer); Homo sapiens, HCC 2998, 48 h, read-out: TGI): 1.62 µM | CC50 (HCC-2998 (Colon cancer); Homo sapiens, HCC 2998, read-out: LC50): 3.02 µM | GI50 (DU-145 (Prostate cancer); DU-145): 1.21 µM | IC (TGI) (DU-145 (Prostate cancer); DU-145, 48 h, read-out: TGI): 3.01 µM | CC50 (DU-145 (Prostate cancer); DU-145, read-out: LC50): 11.3 µM
